Assay results reported in ChEMBL document CHEMBL3352247, “Synthesis and antimycobacterial evaluation of 5-alkylamino-N-phenylpyrazine-2-carboxamides” (Bioorg Med Chem, 2015).
In brackets after ≈: the same amount, converted by molar mass. Activity calls are given as the source filed them. No cut-off for these calls is given here.

Assays:
Staphylococcus aureus [1] = assay: Antibacterial activity against Staphylococcus aureus CCM 4516/08 after 24 to 48 hrs by broth microdilution method; format: functional, organism-based
Escherichia coli = assay: Antibacterial activity against Escherichia coli CCM 4517 after 24 to 48 hrs by broth microdilution method; format: functional, organism-based
Pseudomonas aeruginosa = assay: Antibacterial activity against Pseudomonas aeruginosa CCM 1961 after 24 to 48 hrs by broth microdilution method; format: functional, organism-based
Staphylococcus aureus [2] = assay: Antibacterial activity against methicillin-resistant Staphylococcus aureus H 5996/08 clinical isolate after 24 to 48 hrs by broth microdilution method; format: functional, organism-based
[3] = tested on: Staphylococcus epidermidis; assay: Antibacterial activity against Staphylococcus epidermidis H 6966/08 clinical isolate after 24 to 48 hrs by broth microdilution method; format: functional, organism-based
Enterococcus sp. [4] = assay: Antibacterial activity against Enterococcus sp. J 14365/08 clinical isolate after 24 to 48 hrs by broth microdilution method; format: functional, organism-based
Klebsiella pneumoniae [5] = assay: Antibacterial activity against Klebsiella pneumoniae D 11750/08 clinical isolate after 24 to 48 hrs by broth microdilution method; format: functional, organism-based
Klebsiella pneumoniae [6] = assay: Antibacterial activity against ESBL-positive Klebsiella pneumoniae J 14368/08 clinical isolate after 24 to 48 hrs by broth microdilution method; format: functional, organism-based
Candida albicans = assay: Antifungal activity against Candida albicans ATCC 44859 after 24 to 48 hrs by two-fold dilution method; format: functional, organism-based
Candida tropicalis = assay: Antifungal activity against Candida tropicalis 156 after 24 to 48 hrs by two-fold dilution method; format: functional, organism-based
Pichia kudriavzevii = assay: Antifungal activity against Candida krusei E28 after 24 to 48 hrs by two-fold dilution method; format: functional, organism-based
Nakaseomyces glabratus = assay: Antifungal activity against Candida glabrata 20/I after 24 to 48 hrs by two-fold dilution method; format: functional, organism-based
Trichosporon asahii = assay: Antifungal activity against Trichosporon asahii 1188 after 24 to 48 hrs by two-fold dilution method; format: functional, organism-based
Aspergillus fumigatus = assay: Antifungal activity against Aspergillus fumigatus 231 after 24 to 48 hrs by two-fold dilution method; format: functional, organism-based
Lichtheimia corymbifera = assay: Antifungal activity against Absidia corymbifera 272 after 24 to 48 hrs by two-fold dilution method; format: functional, organism-based
[7] = tested on: Trichophyton mentagrophytes; assay: Antifungal activity against Trichophyton mentagrophytes 445 after 72 to 120 hrs by two-fold dilution method; format: functional, organism-based
[8] = tested on: Mycobacterium tuberculosis; assay: Antimycobacterial activity against Mycobacterium tuberculosis H37Rv CNCTC My 331/88 after 10 to 14 days by AlamarBlue assay; format: functional
Mycobacterium kansasii = assay: Antimycobacterial activity against Mycobacterium kansasii CNCTC My 235/80 after 5 to 7 days by AlamarBlue assay; format: functional
[9] = Antimycobacterial activity against Mycobacterium avium subsp. avium Chester CNCTC My 80/72 after 5 days by AlamarBlue assay; format: functional; conditions: Chester CNCTC My 80/72, 120 h
Enterococcus sp. [10] = assay: Antibacterial activity against Enterococcus sp. after 24 to 48 hrs by broth microdilution method; format: functional

CCCCCCNc1cnc(C(=O)Nc2ccccc2)cn1
Activity (Staphylococcus aureus [1]): inactive
Activity (Escherichia coli): inactive
Activity (Pseudomonas aeruginosa): inactive
Activity (Staphylococcus aureus [2]): inactive
Activity [3]: inactive
Activity (Enterococcus sp. [4]): inactive
Activity (Klebsiella pneumoniae [5]): inactive
Activity (Klebsiella pneumoniae [6]): inactive
Activity (Candida albicans): inactive
Activity (Candida tropicalis): inactive
Activity (Pichia kudriavzevii): inactive
Activity (Nakaseomyces glabratus): inactive
Activity (Trichosporon asahii): inactive
Activity (Aspergillus fumigatus): inactive
Activity (Lichtheimia corymbifera): inactive
Activity [7]: inactive
MIC [8]: 2.6 µM
MIC (Mycobacterium kansasii): 2.6 µM
MIC [9]: > 100 µg/mL
Activity (Enterococcus sp. [10]): Active

CCCCCNc1cnc(C(=O)Nc2ccccc2)cn1
Activity (Staphylococcus aureus [1]): inactive
Activity (Escherichia coli): inactive
Activity (Pseudomonas aeruginosa): inactive
Activity (Staphylococcus aureus [2]): inactive
Activity [3]: inactive
Activity (Enterococcus sp. [4]): inactive
Activity (Klebsiella pneumoniae [5]): inactive
Activity (Klebsiella pneumoniae [6]): inactive
Activity (Candida albicans): inactive
Activity (Candida tropicalis): inactive
Activity (Pichia kudriavzevii): inactive
Activity (Nakaseomyces glabratus): inactive
Activity (Trichosporon asahii): inactive
Activity (Aspergillus fumigatus): inactive
Activity (Lichtheimia corymbifera): inactive
Activity [7]: inactive
MIC [8]: 11 µM
MIC (Mycobacterium kansasii): 11 µM
MIC [9]: > 100 µg/mL
Activity (Enterococcus sp. [10]): Active

CCCCCNc1cnc(C(=O)Nc2ccccc2Cl)cn1
Activity (Staphylococcus aureus [1]): inactive
Activity (Escherichia coli): inactive
Activity (Pseudomonas aeruginosa): inactive
Activity (Staphylococcus aureus [2]): inactive
Activity [3]: inactive
Activity (Enterococcus sp. [4]): inactive
Activity (Klebsiella pneumoniae [5]): inactive
Activity (Klebsiella pneumoniae [6]): inactive
Activity (Candida albicans): inactive
Activity (Candida tropicalis): inactive
Activity (Pichia kudriavzevii): inactive
Activity (Nakaseomyces glabratus): inactive
Activity (Trichosporon asahii): inactive
Activity (Aspergillus fumigatus): inactive
Activity (Lichtheimia corymbifera): inactive
Activity [7]: inactive
MIC [8]: > 100 µg/mL
MIC (Mycobacterium kansasii): > 100 µg/mL
MIC [9]: > 100 µg/mL
Activity (Enterococcus sp. [10]): Active

CCCCNc1cnc(C(=O)Nc2ccccc2Cl)cn1
Activity (Staphylococcus aureus [1]): inactive
Activity (Escherichia coli): inactive
Activity (Pseudomonas aeruginosa): inactive
Activity (Staphylococcus aureus [2]): inactive
Activity [3]: inactive
Activity (Enterococcus sp. [4]): inactive
Activity (Klebsiella pneumoniae [5]): inactive
Activity (Klebsiella pneumoniae [6]): inactive
Activity (Candida albicans): inactive
Activity (Candida tropicalis): inactive
Activity (Pichia kudriavzevii): inactive
Activity (Nakaseomyces glabratus): inactive
Activity (Trichosporon asahii): inactive
Activity (Aspergillus fumigatus): inactive
Activity (Lichtheimia corymbifera): inactive
Activity [7]: inactive
MIC [8]: > 100 µg/mL
MIC (Mycobacterium kansasii): > 100 µg/mL
MIC [9]: > 100 µg/mL
MIC (Enterococcus sp. [10]): 62.5 µM (≈ 19 µg/mL)

CCCCCCCNc1cnc(C(=O)Nc2ccccc2Cl)cn1
Activity (Staphylococcus aureus [1]): inactive
Activity (Escherichia coli): inactive
Activity (Pseudomonas aeruginosa): inactive
Activity (Staphylococcus aureus [2]): inactive
Activity [3]: inactive
Activity (Enterococcus sp. [4]): inactive
Activity (Klebsiella pneumoniae [5]): inactive
Activity (Klebsiella pneumoniae [6]): inactive
Activity (Candida albicans): inactive
Activity (Candida tropicalis): inactive
Activity (Pichia kudriavzevii): inactive
Activity (Nakaseomyces glabratus): inactive
Activity (Trichosporon asahii): inactive
Activity (Aspergillus fumigatus): inactive
Activity (Lichtheimia corymbifera): inactive
Activity [7]: inactive
MIC [8]: 36 µM
MIC (Mycobacterium kansasii): > 25 µg/mL
MIC [9]: > 25 µg/mL
Activity (Enterococcus sp. [10]): Active
